In brackets after ≈: the same amount, converted by molar mass. Like-named read-outs stand apart in the source and are kept apart here. One block for each molecule: values may come before it. Square brackets hold non-standard residues; d marks the D form. Ends that are not written are not given here. Peptide text beside a SMILES is read from it.
Assays:
[1] = system: A. fumigatus (ATCC 46645); assay type: cell-based, Aspergillus fumigatus; settings: for Antifungal activity lacking up to: medium and time not given
Description: (§1) Susceptibility tests were performed according to CLSI guidelines with slight modifications. In brief, 96-well plates (Greiner Bio-One GmbH) were prepared with 100 μL of 2 × AMM (Aspergillus minimal medium) or 0.2 × Potato Dextrose Broth (PDB) containing 3 × 10^4 spores of A. fumigatus (ATCC 46645) per well. An amount of 100μL antifungal, dissolved in water, was added to get a final concentration of 1 × AMM/0.1 × PDB medium and antifungal concentration ranging from 0.031–16 μg/mL.

[2] = system: A. fumigatus (ATCC 46645); assay type: cell-based, Aspergillus fumigatus
Description: as §1

[3] = system: A. fumigatus mutant strain ΔsidA/ΔftrA; assay: Growth promotion assay; assay type: cell-based, Aspergillus fumigatus; settings: 72 h, 37 °C; for Growth promotion (in words): visually assessed; for Concentration of sporulation / Concentration of growth induction / utilization: iron-depleted AMM, 0.1–50 µM tested
Description: To assess the capability of A. fumigatus to utilize the modified siderophores, a mutant strain (ΔsidA/ΔftrA) that lacks the genes sidA and ftrA was used. These mutations impair both siderophore-mediated iron acquisition and reductive iron assimilation, in other words, high-affinity iron acquisition. If the activity of externally supplied siderophore was still intact, similar growth to [Fe]TAFC should be observed, however, in the case of growth reduction, it cannot be distinguished from antifungal activity. Spores (10^4) were point inoculated on solid 0.5 mL of AMM [26] in 24-well plates containing increasing concentrations of iron labelled siderophore ranging from 0.1–50 μM. Plates were incubated for 72 h at 37 °C in a humidity chamber and visually assessed.

A. fumigatus = assay: Uptake assay of 68Ga-labelled conjugates in A. fumigatus; assay type: cell-based, Aspergillus fumigatus; settings: iron-depleted AMM, 45 min, 37 °C
Description: Assays were performed as previously described. Briefly, uptake and competition assays were performed with A. fumigatus in iron-depleted and iron-replete Aspergillus minimal media (AMM), using a 96-well MultiScreen Filter Plates HTS (1 μm glass fiber filter, Merck Millipore, Darmstadt, Germany). Compounds were incubated for 45 min at 37 °C and filters measured in a gamma counter. Competition assays were performed in the same way except for pre-incubation with the iron-containing antifungal conjugates for 15 min, resulting in a competition at the MirB transporter to show specific binding to MirB.

[4] = assay type: physicochemical; settings: pH 7.4
Description: Aliquots of 50 µL of ^68Ga-labelled conjugate (~5 µM) were added to 450 µL of phosphate-buffered saline pH 7.4 (PBS) and 500 µL of Octanol into a 1.5 mL Eppendorf tube. The mixture was vigorously shaken for 20 min at 1400 rpm in a standard vortex (MS 3, IKA, Staufen, Germany) and hereafter, 200 µL of each phase removed and measured in a gamma counter (2480 automatic gamma counter Wizard2 3’’, Perkin Elmer, Waltham, MA, USA) LogD was calculated as the ratio of octanol/water phase using Excel. (n = 3, six technical replicates)

[5] = cited from earlier work

MIC 24 h ([1]; AMM, 37 °C, 24 h): >16 µg/mL | MIC 48 h ([1]; AMM, 37 °C): >16 µg/mL | MIC 24 h ([1]; ATCC 46645, 24 h): >16.1 µM | MIC 24 h ([2]; 0.1 × PDB, 37 °C, 24 h): 16 µg/mL | MIC 48 h ([2]; 0.1 × PDB, 37 °C): >16 µg/mL
Molecule: CC(=O)N[C@H](CCCNC(=N)N)C(=O)N[C@H](CCCCN)C(=O)N[C@H](CCCCN)C(=O)N[C@H](Cc1c[nH]c2ccccc12)C(=O)N[C@H](Cc1ccccc1)C(=O)N[C@H](Cc1c[nH]c2ccccc12)C(N)=O [H2N-D-PAF26-Ac] (Ac-[dR][dK][dK][dW][dF][dW]-NH2)

MIC 24 h ([1]; AMM, 37 °C, 24 h): >16 µg/mL | MIC 48 h ([1]; AMM, 37 °C): >16 µg/mL | MIC 24 h ([1]; ATCC 46645, 24 h): >36.8 µM
Molecule: CC(=O)N[C@@H](CC(N)=O)C(=O)N[C@@H](CC(C)C)C(=O)N[C@H](Cc1ccccc1)C(=O)O [HOOC-NLF-Ac] (Ac-Asn-Leu-[dF]-OH)

MIC / growth inhibition ([2]; 0.1 × PDB, incubation time not given): 8 µg/mL (≈ 8.07 µM)
Molecule: CC(=O)N[C@H](CCCNC(=N)N)C(=O)N[C@H](CCCCN)C(=O)N[C@H](CCCCN)C(=O)N[C@H](Cc1c[nH]c2ccccc12)C(=O)N[C@H](Cc1ccccc1)C(=O)N[C@H](Cc1c[nH]c2ccccc12)C(N)=O [PAF26, Ac-dArg-dLys-dLys-dTrp-dPhe-dTrp-NH2, reference compound] (Ac-[dR][dK][dK][dW][dF][dW]-NH2)

Molecule: CC(=O)NC1CCCN(O)C(=O)/C=C(/C)CCOC(=O)C(NC(=O)CCC(=O)N[C@H](CCCNC(=N)N)C(=O)N[C@H](CCCCN)C(=O)N[C@H](CCCCN)C(=O)N[C@H](Cc2c[nH]c3ccccc23)C(=O)N[C@H](Cc2ccccc2)C(=O)N[C@H](Cc2c[nH]c3ccccc23)C(N)=O)CCCN(O)C(=O)/C=C(/C)CCOC(=O)C(NC(C)=O)CCCN(O)C(=O)/C=C(/C)CCOC1=O (stereo partly drawn) [[Fe]DAFC-D-PAF26]
Growth promotion (in words) [3]: low hyphal growth without sporulation | MIC 24 h ([1]; AMM, 37 °C, 24 h): >16 µg/mL | MIC 48 h ([1]; AMM, 37 °C): >16 µg/mL | MIC 24 h ([1]; ATCC 46645, 24 h): >8.4 µM | MIC 24 h ([2]; 0.1 × PDB, 37 °C, 24 h): >16 µg/mL | MIC 48 h ([2]; 0.1 × PDB, 37 °C): >16 µg/mL | MIC 24 h ([2]; ATCC 46645, 24 h): >8.4 µM

Molecule: CC(=O)NC1CCCN(O)C(=O)/C=C(/C)CCOC(=O)C(NC(=O)CCC(=O)N[C@@H](CCCNC(=N)N)C(=O)N[C@@H](CCCCN)C(=O)N[C@@H](CCCCN)C(=O)N[C@@H](Cc2c[nH]c3ccccc23)C(=O)N[C@@H](Cc2ccccc2)C(=O)N[C@@H](Cc2c[nH]c3ccccc23)C(N)=O)CCCN(O)C(=O)/C=C(/C)CCOC(=O)C(NC(C)=O)CCCN(O)C(=O)/C=C(/C)CCOC1=O (stereo partly drawn) [[Fe]DAFC-L-PAF26]
Growth promotion (in words) [3]: low hyphal growth without sporulation | MIC 24 h ([1]; AMM, 37 °C, 24 h): >16 µg/mL | MIC 48 h ([1]; AMM, 37 °C): >16 µg/mL | MIC 24 h ([1]; ATCC 46645, 24 h): >8.4 µM

Molecule: CC(=O)NC1CCCN(O)C(=O)/C=C(/C)CCOC(=O)C(NC(=O)[C@@H](Cc2ccccc2)NC(=O)[C@H](CC(C)C)NC(=O)[C@H](CC(N)=O)NC(C)=O)CCCN(O)C(=O)/C=C(/C)CCOC(=O)C(NC(C)=O)CCCN(O)C(=O)/C=C(/C)CCOC1=O (some centres unmarked) [[Fe]DAFC-NLF-Ac]
Concentration of sporulation [3]: 50 µM | MIC 24 h ([1]; AMM, 37 °C, 24 h): >16 µg/mL | MIC 48 h ([1]; AMM, 37 °C): >16 µg/mL | MIC 24 h ([1]; ATCC 46645, 24 h): >12.5 µM | Antifungal activity lacking up to [1]: > 16 µg/mL

Molecule: CC(=O)NC1CCCN(O)C(=O)/C=C(/C)CCOC(=O)C(NC(=O)CCC(=O)N[C@@H](CC(N)=O)C(=O)N[C@@H](CC(C)C)C(=O)N[C@H](Cc2ccccc2)C(=O)O)CCCN(O)C(=O)/C=C(/C)CCOC(=O)C(NC(C)=O)CCCN(O)C(=O)/C=C(/C)CCOC1=O (some centres unmarked) [[Fe]DAFC-succ-NLF]
Concentration of growth induction / utilization [3]: 10 to 50 µM | Growth promotion (in words) [3]: very low growth promotion | MIC 24 h ([1]; AMM, 37 °C, 24 h): >16 µg/mL | MIC 48 h ([1]; AMM, 37 °C): >16 µg/mL | MIC 24 h ([1]; ATCC 46645, 24 h): >12.0 µM | Antifungal activity lacking up to [1]: > 16 µg/mL

Molecule: CC(=O)N[C@@H]1CCCN(O)C(=O)/C=C(/C)CCOC(=O)[C@H](NC(=O)CCC(=O)N[C@@H](CCCNC(=N)N)C(=O)N[C@@H](CCCCN)C(=O)N[C@@H](CCCCN)C(=O)N[C@@H](Cc2c[nH]c3ccccc23)C(=O)N[C@@H](Cc2ccccc2)C(=O)N[C@@H](Cc2c[nH]c3ccccc23)C(N)=O)CCCN(O)C(=O)/C=C(/C)CCOC(=O)[C@H](NC(C)=O)CCCN(O)C(=O)/C=C(/C)CCOC1=O [[^68Ga]Ga-DAFC-L-PAF26, metal not drawn]
Uptake into A. fumigatus hyphae normalized to uptake of [68Ga]Ga-TAFC (A. fumigatus): 90% | logD [4]: -3.13 ± 0.02

Molecule: H-Asn-Leu-[dF]-OH [NLF]
Antifungal activity (in words) ([1]; AMM, 0.031–16 µg/mL tested): lacked antifungal potential

MIC 24 h ([1]; AMM, 37 °C, 24 h): >16 µg/mL | MIC 48 h ([1]; AMM, 37 °C): >16 µg/mL | MIC 24 h ([1]; ATCC 46645, 24 h): >16.8 µM
Molecule: RKKWFW [HOOC-L-PAF26-NH2]

Molecule: triacetylfusarinine C [[Fe]TAFC, reference compound]
Concentration of growth induction / utilization [3]: 0.1 µM | Concentration of sporulation [3]: 10 µM

Molecule: triacetylfusarinine C [[^68Ga]Ga-TAFC]
Biodistribution Blood 30 min ([5]; BALB/c mice, 30 min, blood): 1.60 ± 0.37 %ID/g | Biodistribution Femur 30 min ([5]; BALB/c mice, 30 min, femur): 0.51 ± 0.79 %ID/g | Biodistribution Heart 30 min ([5]; BALB/c mice, 30 min, heart): 0.67 ± 0.16 %ID/g | Biodistribution Intestine 30 min ([5]; BALB/c mice, 30 min, intestine): 1.71 ± 10.04 %ID/g | Biodistribution Kidneys 30 min ([5]; BALB/c mice, 30 min, kidneys): 5.51 ± 1.22 %ID/g | Biodistribution Liver 30 min ([5]; BALB/c mice, 30 min, liver): 0.70 ± 0.04 %ID/g | Biodistribution Lung 30 min ([5]; BALB/c mice, 30 min, lung): 1.54 ± 0.27 %ID/g | Biodistribution Muscle 30 min ([5]; BALB/c mice, 30 min, muscle): 0.52 ± 0.25 %ID/g | Biodistribution Pancreas 30 min ([5]; BALB/c mice, 30 min, pancreas): 0.42 ± 0.16 %ID/g | Biodistribution Spleen 30 min ([5]; BALB/c mice, 30 min, spleen): 0.38 ± 0.11 %ID/g | Biodistribution Stomach 30 min ([5]; BALB/c mice, 30 min, stomach): 0.77 ± 0.22 %ID/g | Biodistribution Blood 90 min ([5]; BALB/c mice, 90 min, blood): 0.06 ± 0.04 %ID/g | Biodistribution Femur 90 min ([5]; BALB/c mice, 90 min, femur): 0.15 ± 0.20 %ID/g | Biodistribution Heart 90 min ([5]; BALB/c mice, 90 min, heart): 0.03 ± 0.01 %ID/g | Biodistribution Intestine 90 min ([5]; BALB/c mice, 90 min, intestine): 1.03 ± 0.26 %ID/g | Biodistribution Kidneys 90 min ([5]; BALB/c mice, 90 min, kidneys): 1.27 ± 0.39 %ID/g | Biodistribution Liver 90 min ([5]; BALB/c mice, 90 min, liver): 0.15 ± 0.09 %ID/g | Biodistribution Lung 90 min ([5]; BALB/c mice, 90 min, lung): 0.10 ± 0.03 %ID/g | Biodistribution Muscle 90 min ([5]; BALB/c mice, 90 min, muscle): 0.03 ± 0.01 %ID/g | Biodistribution Pancreas 90 min ([5]; BALB/c mice, 90 min, pancreas): 0.04 ± 0.01 %ID/g | Biodistribution Spleen 90 min ([5]; BALB/c mice, 90 min, spleen): 0.05 ± 0.02 %ID/g | Biodistribution Stomach 90 min ([5]; BALB/c mice, 90 min, stomach): 0.06 ± 0.02 %ID/g | Metabolites on excretion through the urinary tract (in words) [5]: no metabolites detected

From publication PMC7765500, “Siderophore Scaffold as Carrier for Antifungal Peptides in Therapy of Aspergillus fumigatus Infections” (Journal of Fungi, 2020)
